Key:
PC-3 prostate cell line = test: Cytotoxicity against PC3 prostate cancer cell line; details: for IC50(cp)/IC50(tx) PC3: ratio of compound IC50 to Taxol IC50, PC3
purified tubulin = details: for EC50: read-out: ED50, Tb polymerization, Tubulin concentration 5 μM
[1] = test system: Taxol binding site on crosslinked microtubules (polymerized tubulin); test: Competition binding with fluorescent Taxol N-AB-PT; details: for competition experiment with fluorescent Taxol, compared with Taxol/PTX: N-AB-PT 5 μM, increasing competitor (0-30 μM), FIG. 14; for Inhibit binding F-Taxol: 10 μM Taxol or Taxoid, 5 μM N-AB-PT, 5 μM crosslinked microtubules
Protocol: Competition Binding Experiments. The relative affinities of Taxol and derivatives for polymerized tubulin were assessed by competition assays. Crosslinked microtubules were prepared in glycerol assembly buffer (10 mM phosphate, 1 mM EGTA, 0.1 mM GTP 3.4 M glycerol, pH 6.9) as described by Andreu and Barasoain. Prior to use, the crosslinked microtubules were dialyzed against PME buffer for 16-18 hr. Crosslinked microtubules (5 μM) and the fluorescent Taxol derivative N-AB-PT (15, 5 μM) in PME buffer were incubated for 20 min at room temperature with 10 μM of Taxol or the Taxoid. The fluorescence emission intensity at 412 nm of each sample was recorded using a Jobin-Yvon Horiba Fluoromax-3 spectrofluorometer in a 2 mm×10 mm quartz cell (1ex=320 nm) and compared to the emission intensity of the system in the absence of competitor.
For the fall competition experiment, microtubules, N-AB-PT and varying concentrations of Taxol or 13b (0-30 μM) were treated in the same manner and their emission intensities were measured. The full competition experiment was repeated using pure tubulin assembled by N-AB-PT and identical results were obtained (data not shown).

[2] = test system: A2780 ovarian cancer cell line; test: Cytotoxicity against A2780 ovarian cancer cell line; details: for Cytotoxicity (IC50, μg/ml) A2780: Example 2, A2780; for IC50(cp)/IC50(tx) A2780: ratio of compound IC50 to Taxol IC50, A2780
GDP-tubulin = test: Critical concentration determination of tubulin assembly; assay type: biochemical; details: Taxoid concentration 10 μM; 37° C., PME buffer, 4% DMSO
Protocol: Critical Concentration Determination. The critical concentration of tubulin in the presence of 10 μM Taxol or Taxol analog was determined from assembly experiments performed at 37° C. with GDP-tubulin in PME buffer (100 mM PIPES, 2 mM MgSO4, 1 mM EGTA, pH=6.90) containing 4% DMSO. The extent of assembly was measured at different tubulin concentrations (0.5-6 μM) by light scattering (apparent absorption at 350 nm). Critical concentrations were calculated from the x-intercepts of plots of apparent A350 nm VS. tubulin concentration.

Structure (SMILES)	cytotoxicity against PC3 in words, compared with PTX/Taxol (PC-3 prostate cell line)	tubulin polymerization activity in words, compared to PTX (purified tubulin)	cytotoxicity against A2780 in words, compared with PTX/Taxol or related analogs [2]	other results
CC(=O)O[C@H]1C(=O)[C@@]2(C)[C@@H]3[C@H](OC(=O)c4ccccc4)[C@]4(O)C[C@H](OC(=O)[C@H](O)[C@@H](NC(=O)c5ccccc5)c5ccccc5OC/C=C/C(=O)O[C@]35CO[C@@H]5C[C@@H]2O)C(C)=C1C4(C)C [Compound 15b]	two fold more cytotoxicity than PTX	superior to PTX	more or less equal cytotoxicity	inhibition of binding of fluorescent taxol, compared with paclitaxel, in words [1]: better than paclitaxel; competition experiment with fluorescent Taxol, compared with Taxol/PTX [1]: identical in all respect to PTX
CC(=O)O[C@H]1C(=O)[C@@]2(C)[C@H]([C@H](OC(=O)c3ccccc3)[C@]3(O)C[C@H](OC(=O)[C@H](O)[C@@H](NC(=O)c4ccccc4)c4ccccc4)C(C)=C1C3(C)C)[C@]1(OC(C)=O)CO[C@@H]1C[C@@H]2O [Taxol, Paclitaxel]	–	–	–	EC50 (purified tubulin): 500 ± 140 nM; Inhibit binding F-Taxol [1]: 26%; Critical Tb conc. (GDP-tubulin): 1.8 ± 0.30 µM; Cytotoxicity (IC50, μg/ml) A2780 [2]: 0.02 µg/mL
CC(=O)O[C@H]1C(=O)[C@@]2(C)[C@@H]3[C@H](OC(=O)c4ccccc4)[C@]4(O)C[C@H](OC(=O)[C@H](O)[C@@H](NC(=O)c5ccccc5)c5ccccc5OCCCCC(=O)O[C@]35CO[C@@H]5C[C@@H]2O)C(C)=C1C4(C)C [Compound 16c]	more or less equal cytotoxicity	–	more or less equal cytotoxicity	–
CC(=O)O[C@H]1C(=O)[C@@]2(C)[C@@H]3[C@H](OC(=O)c4ccccc4)[C@]4(O)C[C@H](OC(=O)[C@H](O)[C@@H](NC(=O)c5ccccc5)c5ccccc5OCCCC(=O)O[C@]35CO[C@@H]5C[C@@H]2O)C(C)=C1C4(C)C [Compound 16b]	more or less equal cytotoxicity	superior to PTX	more or less equal cytotoxicity	inhibition of binding of fluorescent taxol, compared with paclitaxel, in words [1]: better than paclitaxel
CC(=O)O[C@H]1C(=O)[C@@]2(C)[C@@H]3[C@H](OC(=O)c4ccccc4)[C@]4(O)C[C@H](OC(=O)[C@H](O)[C@@H](NC(=O)c5ccccc5)c5ccccc5/C=C/CC(=O)O[C@]35CO[C@@H]5C[C@@H]2O)C(C)=C1C4(C)C [Compound 15J]	–	superior to PTX	–	fold more cytotoxicity compared to PTX against PC3 (PC-3 prostate cell line; PC3 cell line): 2 fold; inhibition of binding of fluorescent taxol, compared with paclitaxel, in words [1]: better than paclitaxel; fold more cytotoxicity compared to PTX ([2]; A2780 cell line, cell line not named): 6 fold
O=C1/C=C/COc2cccc(c2)[C@H](NC(=O)c2ccccc2)[C@@H](O)C(=O)OC2CC3CC(CO1)C(OC(=O)c1ccccc1)C(C3)C2 (some centres unmarked) [Compound 20b]	–	–	less active than 18 and 19	Cytotoxicity (IC50, μg/ml) A2780 [2]: >100 µg/mL
C=CC(=O)O[C@@]12CO[C@@H]1C[C@H](O)[C@@]1(C)C(=O)[C@H](OC(C)=O)C3=C(C)[C@@H](OC(=O)[C@H](O)[C@@H](NC(=O)c4ccccc4)c4ccccc4O/C=C\C)C[C@@](O)([C@@H](OC(=O)c4ccccc4)C12)C3(C)C (some centres unmarked) [Compound 12b]	over two orders of magnitude less cytotoxic	–	over three orders of magnitude less cytotoxic	IC50(cp)/IC50(tx) PC3 (PC-3 prostate cell line): 150; EC50 (purified tubulin): 1020 ± 370 nM; IC50(cp)/IC50(tx) A2780 [2]: 1190
C=CCOc1ccccc1C(NC(=O)c1ccccc1)C(O)C(=O)OC1CC2(O)C(OC(=O)c3ccccc3)C3C4(OC(=O)C=C)COC4CC(O)C3(C)C(=O)C(OC(C)=O)C(=C1C)C2(C)C (centres unmarked) [Compound 13c]	almost inactive	–	almost inactive	–
CC(=O)O[C@H]1C(=O)[C@@]2(C)[C@@H]3[C@H](OC(=O)c4ccccc4)[C@]4(O)C[C@H](OC(=O)[C@H](O)[C@@H](NC(=O)c5ccccc5)c5ccccc5OC/C=C/C(=O)O[C@]35CO[C@@H]5C[C@@H]2O)C(C)=C1C4(C)C [Compound 13b]	equipotent with Taxol	–	equipotent with Taxol	IC50(cp)/IC50(tx) PC3 (PC-3 prostate cell line): 1.0; EC50 (purified tubulin): 280 ± 110 nM; Inhibit binding F-Taxol [1]: 30%; competition experiment with fluorescent Taxol, compared with Taxol/PTX [1]: equal affinity; Critical Tb conc. (GDP-tubulin): 1.2 ± 0.24 µM; IC50(cp)/IC50(tx) A2780 [2]: 0.97
CC(=O)O[C@H]1C(=O)[C@@]2(C)[C@@H]3[C@H](OC(=O)c4ccccc4)[C@]4(O)C[C@H](OC(=O)[C@H](O)[C@@H](NC(=O)c5ccccc5)c5cccc(c5)/C=C\CCC(=O)O[C@]35CO[C@@H]5C[C@@H]2O)C(C)=C1C4(C)C [Compound 15f]	–	comparable	–	–
CC(=O)O[C@H]1C(=O)[C@@]2(C)[C@@H]3[C@H](OC(=O)c4ccccc4)[C@]4(O)C[C@H](OC(=O)[C@H](O)[C@@H](NC(=O)c5ccccc5)c5cccc(c5)CCCCC(=O)O[C@]35CO[C@@H]5C[C@@H]2O)C(C)=C1C4(C)C [Compound 16f]	–	–	much less than the unsaturated 15e and 15f	–
CC(=O)O[C@H]1C(=O)[C@@]2(C)[C@@H]3[C@H](OC(=O)c4ccccc4)[C@]4(O)C[C@H](OC(=O)[C@H](O)[C@@H](NC(=O)c5ccccc5)c5cccc(c5)OC/C=C\CCC(=O)O[C@]35CO[C@@H]5C[C@@H]2O)C(C)=C1C4(C)C [Compound 15e]	–	comparable	–	–
C=CCCC(=O)OC12COC1CC(O)C1(C)C(=O)C(OC(C)=O)C3=C(C)C(OC(=O)C(O)C(NC(=O)c4ccccc4)c4ccccc4OCC=C)CC(O)(C(OC(=O)c4ccccc4)C21)C3(C)C (centres unmarked) [Compound 13i]	–	–	better cytotoxicites than their macrocyclic counter parts	–
CC(=O)O[C@H]1C(=O)[C@@]2(C)[C@@H]3[C@H](OC(=O)c4ccccc4)[C@]4(O)C[C@H](OC(=O)[C@H](O)[C@@H](NC(=O)c5ccccc5)c5ccccc5OCC/C=C/C(=O)O[C@]35CO[C@@H]5C[C@@H]2O)C(C)=C1C4(C)C [Compound 15c]	more or less equal cytotoxicity	–	more or less equal cytotoxicity	–
C=CCCC(=O)OC12COC1CC(O)C1(C)C(=O)C(OC(C)=O)C3=C(C)C(OC(=O)C(O)C(NC(=O)c4ccccc4)c4cccc(C=C)c4)CC(O)(C(OC(=O)c4ccccc4)C21)C3(C)C (centres unmarked) [Compound 13h]	–	–	better cytotoxicites than their macrocyclic counter parts	–
CC(=O)O[C@H]1C(=O)[C@@]2(C)[C@@H]3[C@H](OC(=O)c4ccccc4)[C@]4(O)C[C@H](OC(=O)[C@H](O)[C@@H](NC(=O)c5ccccc5)c5cccc(c5)OCCCCCC(=O)O[C@]35CO[C@@H]5C[C@@H]2O)C(C)=C1C4(C)C [Compound 16e]	–	–	much less than the unsaturated 15e and 15f	–
